Drawing on ChEMBL document CHEMBL1130294, “Subsite requirements for peptide aldehyde inhibitors of human calpain I” (Bioorg Med Chem Lett, 1997), this text covers IC50 for 58 compounds.

Non-standard residues stand in square brackets, D forms with d. Residues, ends and D or L forms follow the SMILES beside them. *: point of attachment. tBuAla = CC(C)(C)C[C@H](N)C(=O)O; Tic = O=C(O)[C@@H]1Cc2ccccc2CN1; Cha = N[C@@H](CC1CCCCC1)C(=O)O; Tle = CC(C)(C)[C@H](N)C(=O)O; Nle = CCCC[C@H](N)C(=O)O; Abu = CC[C@H](N)C(=O)O; Cbz = O=C(OCc1ccccc1)*; Boc = CC(C)(C)OC(=O)*; Bn = c1ccc(C*)cc1; OtBu = CC(C)(C)O*; tBu = CC(C)(C)*

This test deals with T1, Calpain-1 catalytic subunit (Homo sapiens, UniProt P07384).
T1 sequence (P07384 whole entry): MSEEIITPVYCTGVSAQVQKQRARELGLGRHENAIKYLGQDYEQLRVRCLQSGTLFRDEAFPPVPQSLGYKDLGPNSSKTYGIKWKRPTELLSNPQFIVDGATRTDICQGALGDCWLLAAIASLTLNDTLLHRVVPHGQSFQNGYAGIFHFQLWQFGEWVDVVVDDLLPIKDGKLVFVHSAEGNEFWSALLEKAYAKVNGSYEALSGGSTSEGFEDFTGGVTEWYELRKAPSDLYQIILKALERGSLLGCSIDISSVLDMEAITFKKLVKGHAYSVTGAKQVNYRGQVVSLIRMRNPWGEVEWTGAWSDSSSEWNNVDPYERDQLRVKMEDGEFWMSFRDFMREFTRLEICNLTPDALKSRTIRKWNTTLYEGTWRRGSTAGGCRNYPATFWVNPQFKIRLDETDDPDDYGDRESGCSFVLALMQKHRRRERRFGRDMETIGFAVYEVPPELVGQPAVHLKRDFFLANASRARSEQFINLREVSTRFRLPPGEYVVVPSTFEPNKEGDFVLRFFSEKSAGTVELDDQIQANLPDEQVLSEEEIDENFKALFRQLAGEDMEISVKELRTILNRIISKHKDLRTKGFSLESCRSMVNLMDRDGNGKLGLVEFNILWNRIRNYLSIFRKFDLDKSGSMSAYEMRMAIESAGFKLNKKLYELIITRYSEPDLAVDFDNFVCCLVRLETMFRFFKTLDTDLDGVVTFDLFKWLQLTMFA
The experiment in a line: Inhibitory activity evaluated against recombinant human calpain 1.

In the case of `CC(C)C[C@H](NC(=O)OCc1ccccc1)C(=O)N[C@H](C=O)C(C)C` (Cbz-Leu-Val-aldehyde), the IC50 amounted to 4 nM.
As for `CC(C)C[C@@H](C=O)NC(=O)[C@H](CC(C)C)NC(=O)[C@H](CCC(=O)O)NC(=O)OCc1ccccc1` (Cbz-Glu-Leu-Leu-aldehyde), the IC50 came out at 40 nM.
With `CCCC[C@@H](C=O)NC(=O)[C@H](CC(C)C)NC(=O)OCc1ccccc1` [CALPEPTIN] the figure was 5 nM; with `CC(=O)N[C@@H](CC(C)C)C(=O)N[C@@H](CC(C)C)C(=O)N[C@H](C=O)Cc1ccccc1` (Ac-Leu-Leu-Phe-aldehyde), 32 nM; with `CC(=O)N[C@@H](CC(C)C)C(=O)N[C@@H](CC(C)C)C(=O)N[C@H](C=O)Cc1c[nH]c2ccccc12` (Ac-Leu-Leu-Trp-aldehyde), 150 nM.
Consider `CC(=O)N[C@@H](CC(C)C)C(=O)N[C@@H](CC(C)C)C(=O)N[C@H](C=O)CCC(=O)OC(C)(C)C` (Ac-Leu-Leu-Glu(OtBu)-aldehyde), for which the IC50 stood at 1100 nM.
The same measure for `CC(=O)N[C@@H](COC(C)(C)C)C(=O)N[C@@H](CC(C)C)C(=O)N[C@H](C=O)CC(C)C` (Ac-Ser(tBu)-Leu-Leu-aldehyde): 37 nM.
With `CC(C)C[C@@H](C=O)NC(=O)[C@H](CC(C)C)N(C)C(=O)OCc1ccccc1` the figure was more than 10000 nM; with `CC(=O)N[C@@H](C)C(=O)N[C@@H](CC(C)C)C(=O)N[C@H](C=O)CC(C)C` (Ac-Ala-Leu-Leu-aldehyde), 18 nM; with `CC(C)C[C@@H](C=O)NC(=O)[C@H](CC(C)(C)C)NC(=O)OCc1ccccc1` (Cbz-[tBuAla]-Leu-aldehyde), 140 nM.
On to `CSCC[C@@H](C=O)NC(=O)[C@H](CC(C)C)NC(=O)OCc1ccccc1` (Cbz-Leu-Met-aldehyde), for which the IC50 was 33 nM.
The same measure for `CC(C)C[C@@H](C=O)NC(=O)[C@H](Cc1c[nH]c2ccccc12)NC(=O)OCc1ccccc1` (Cbz-Trp-Leu-aldehyde): 120 nM.
Turning to `CC(C)C[C@@H](C=O)NC(=O)[C@H](CC(C)C)NC(=O)[C@H](C)NC(=O)OCc1ccccc1` (Cbz-Ala-Leu-Leu-aldehyde), the IC50 was 5 nM.
`CC(=O)N[C@@H](CC(C)C)C(=O)N[C@@H](CC(C)C)C(=O)N[C@H](C=O)CCCCNC(=O)OC(C)(C)C` (Ac-Leu-Leu-Lys(Boc)-aldehyde): the IC50 was 33 nM.
Regarding `CC(=O)N[C@@H](CC(C)C)C(=O)N[C@@H](CC(C)C)C(=O)N[C@@H](C=O)CC(C)C`, the IC50 was determined as 62 nM.
With `CC[C@@H](C=O)NC(=O)[C@H](CC(C)C)NC(=O)OCc1ccccc1` (Cbz-Leu-[Abu]-aldehyde) the figure was 10 nM.
The same measure for `CC(C)C[C@@H](C=O)NC(=O)[C@H](CC(C)C)NC(=O)[C@@H]1Cc2ccccc2CN1C(=O)OCc1ccccc1` (Cbz-[Tic]-Leu-Leu-aldehyde): 15 nM; for `CCCC[C@@H](C=O)NC(=O)[C@H](CC(C)C)NC(=O)[C@H](CC(C)C)NC(C)=O` (Ac-Leu-Leu-[Nle]-aldehyde): 12 nM.
With `CC(C)C[C@H](NC(=O)OCc1ccccc1)C(=O)N(C)[C@H](C=O)CC(C)C` the figure was more than 1000 nM; with `CC(C)C[C@H](NC(=O)OCc1ccccc1)C(=O)N[C@H](C=O)Cc1cnc[nH]1` (Cbz-Leu-His-aldehyde), 15 nM; with `CC(C)C[C@@H](C=O)NC(=O)[C@H](CC(C)C)NC(=O)[C@H](CC(C)C)NC(=O)c1ccc2ccccc2c1`, 10 nM.
As for `CC(C)C[C@H](NC(=O)OCc1ccccc1)C(=O)N[C@H](C=O)Cc1ccccc1` (Cbz-Leu-Phe-aldehyde), the IC50 was 10 nM.
Regarding `CC(=O)N[C@@H](CC(C)C)C(=O)N[C@@H](CC(C)C)C(=O)NCC=O` (Ac-Leu-Leu-Gly-aldehyde), the IC50 was approximately 1000 nM.
Regarding `CC(C)C[C@@H](C=O)NC(=O)[C@@H](NC(=O)OCc1ccccc1)C(C)(C)C` (Cbz-[Tle]-Leu-aldehyde), the IC50 is 4 nM.
Turning to `CC(C)C[C@H](NC(=O)OCc1ccccc1)C(=O)N[C@H](CC=O)Cc1ccccc1`, the IC50 was more than 1000 nM.
With `CC(C)C[C@@H](C=O)NC(=O)[C@H](CC(C)C)NC(=O)[C@H](Cc1ccc(O)cc1)NC(=O)OCc1ccccc1` (Cbz-Tyr-Leu-Leu-aldehyde) the figure was 8 nM; with `CC(C)C[C@@H](C=O)NC(=O)[C@H](Cc1ccccc1)NC(=O)[C@H](CC(C)C)NC(=O)OCc1ccccc1` (Cbz-Leu-Phe-Leu-aldehyde), 68 nM; with `CC(C)C[C@H](NC(=O)OCc1ccccc1)C(=O)NCCC=O`, more than 10000 nM.
Turning to `CC(C)C[C@@H](C=O)NC(=O)[C@H](CC(C)C)NC(=O)c1ccccc1C(=O)O`, the IC50 is more than 1000 nM.
As for `CC(C)C[C@@H](C=O)NC(=O)[C@@H](NC(=O)OCc1ccccc1)C(C)C` (Cbz-Val-Leu-aldehyde), the IC50 was 29 nM.
The same measure for `CC(C)C[C@@H](C=O)NC(=O)[C@H](CCCCN)NC(=O)[C@H](CC(C)C)NC(=O)OCc1ccccc1` (Cbz-Leu-Lys-Leu-aldehyde): approximately 10000 nM; for `CSCCC(C=O)NC(=O)C(CC(C)C)NC(=O)[C@H](CC(C)C)NC(C)=O` (single isomer, unassigned): 23 nM; for `CC(C)C[C@@H](C=O)NC(=O)CNC(=O)[C@H](CC(C)C)NC(=O)OCc1ccccc1` (Cbz-Leu-Gly-Leu-aldehyde): approximately 10000 nM.
Take `CC(=O)N[C@@H](CC(C)C)C(=O)N[C@@H](CC(C)C)C(=O)N[C@H](C=O)CCCNC(=N)N`: the IC50 was determined as 72 nM.
The same measure for `CC(C)C[C@@H](C=O)NC(=O)[C@H](CO)NC(=O)OCc1ccccc1` (Cbz-Ser-Leu-aldehyde): 530 nM; for `CC(C)C[C@@H](C=O)NC(=O)[C@H](CC(C)C)NC(=O)[C@H](COC(C)(C)C)NC(=O)OCc1ccccc1` (Cbz-Ser(tBu)-Leu-Leu-aldehyde): 12 nM.
`CC(C)C[C@@H](C=O)NC(=O)[C@H](C)NC(=O)[C@H](CC(C)C)NC(=O)OCc1ccccc1` (Cbz-Leu-Ala-Leu-aldehyde): the IC50 worked out at 90 nM.
`CC(C)C[C@@H](C=O)NC(=O)[C@H](Cc1ccc(O)cc1)NC(=O)OCc1ccccc1` (Cbz-Tyr-Leu-aldehyde): the IC50 was more than 1000 nM.
With `CC(C)C[C@H](NC(=O)OCc1ccccc1)C(=O)N[C@H](C=O)C(C)(C)C` (Cbz-Leu-[Tle]-aldehyde) the figure was 35 nM; with `CC[C@H](C)[C@H](NC(=O)OCc1ccccc1)C(=O)N[C@H](C=O)CC(C)C` (Cbz-Ile-Leu-aldehyde), 41 nM; with `CC(C)C[C@@H](C=O)NC(=O)[C@H](Cc1ccccc1)NC(=O)[C@@H](NC(=O)OCc1ccccc1)C(C)C` (Cbz-Val-Phe-Leu-aldehyde), 31 nM.
The same measure for `CC(C)C[C@@H](C=O)NC(=O)[C@H](Cc1ccccc1)NC(=O)OCc1ccccc1` (Cbz-Phe-Leu-aldehyde): 230 nM.
The same measure for `CC(C)C[C@@H](C=O)NC(=O)[C@H](CC(C)C)NC(=O)[C@H](CCCCN)NC(=O)OCc1ccccc1` (Cbz-Lys-Leu-Leu-aldehyde): 20 nM; for `CC(C)C[C@@H](C=O)NC(=O)[C@H](CC(C)C)NC(=O)[C@H](Cc1ccccc1)NC(=O)OCc1ccccc1` (Cbz-Phe-Leu-Leu-aldehyde): 11 nM.
On to `CC(=O)N[C@H](C(=O)N[C@@H](Cc1ccccc1)C(=O)N[C@H](C=O)CC(C)C)C(C)C` (Ac-Val-Phe-Leu-aldehyde), for which the IC50 is 110 nM.
With `CC(C)C[C@H](NC(=O)OCc1ccccc1)C(=O)N[C@@H](C)C=O` (Cbz-Leu-Ala-aldehyde) the figure was 120 nM; with `CC(C)C[C@@H](C=O)NC(=O)[C@H](CC(C)C)NC(=O)/C=C\C(=O)O`, approximately 10000 nM; with `CC(C)C[C@@H](C=O)NC(=O)[C@H](CC(C)C)NC(=O)[C@H](CC(C)C)NC(=O)[C@H](C)NC(=O)OCc1ccccc1` (Cbz-ALLL-aldehyde), 6 nM.
The same measure for `CC(C)C[C@@H](C=O)NC(=O)[C@H](CC(C)C)NC(=O)[C@H](CC(C)C)NC(=O)OCc1ccccc1` (Cbz-Leu-Leu-Leu-aldehyde): 19 nM.
The same measure for `CC(C)C[C@@H](C=O)NC(=O)[C@H](CCC(=O)O)NC(=O)[C@H](CC(C)C)NC(=O)OCc1ccccc1` (Cbz-Leu-Glu-Leu-aldehyde): 1200 nM; for `CC(C)C[C@H](NC(=O)OCc1ccccc1)C(=O)N[C@H](C=O)Cc1ccc(OCc2ccccc2)cc1` (Cbz-Leu-Tyr(Bn)-aldehyde): 7 nM.
With `CC(C)C[C@@H](C=O)NC(=O)[C@@H](NC(=O)OCc1ccccc1)[C@H](C)O`, the IC50 was 190 nM.
The same measure for `CC(C)C[C@@H](C=O)NC(=O)[C@H](CC1CCCCC1)NC(=O)OCc1ccccc1` (Cbz-[Cha]-Leu-aldehyde): 580 nM; for `CC(C)C[C@@H](C=O)NC(=O)[C@H](CCC(N)=O)NC(=O)OCc1ccccc1` (Cbz-Gln-Leu-aldehyde): 370 nM.
As for `CC(C)C[C@H](NC(=O)OCc1ccccc1)C(=O)N[C@H](C=O)CC1CCCCC1` (Cbz-Leu-[Cha]-aldehyde), the IC50 was found to be 11 nM.
With `CC(C)C[C@H](C=O)NC(=O)OCc1ccccc1` the figure was 10000 nM; with `CC(C)C[C@@H](C=O)NC(=O)[C@H](CC(C)C)NC(=O)OCc1ccccc1`, 8 nM.
Consider `CCCC[C@H](NC(=O)OCc1ccccc1)C(=O)N[C@H](C=O)CC(C)C`, for which the IC50 was determined as 33 nM.

For orientation: IC50 means the concentration needed to halve the response being measured.
